In BindingDB's records for patent US12522634 (Farsight Medical Technology (Shanghai), 2026):
Starred links: 1 amine or outer side, 2 acyl side, 3 side chain; linkers in the order of their positions; H or OH if unused. Non-standard residues stand in square brackets, D forms with d. Residues, ends and D or L forms follow the SMILES beside them. MeBmt = C/C=C/C[C@@H](C)[C@@H](O)[C@H](NC)C(=O)O; X1 = CN([C@H](OCCN1CCOCC1)C(=O)[*:2])[*:1]; X2 = CN(C)CCO[C@H](C(=O)[*:2])N(C)[*:1]; NMeL = CN[C@@H](CC(C)C)C(=O)O; NMeV = CN[C@H](C(=O)O)C(C)C; Nva = CCC[C@H](N)C(=O)O

Legend:
[1] = target: Peptidyl-prolyl cis-trans isomerase F, mitochondrial (Human, UniProt P30405); assay: Cyclophilin Peptidyl-Prolyl Isomerase Functional Assay
Protocol: (§1) Assay buffer was cooled to 10° C. (with stirring) in a precision glass cuvette and inhibitor was added from a DMSO stock solution to afford a final concentration of <1% DMSO. A blank spectrum was obtained and then enzyme and substrate were added and the change in absorbance measured over 5 min. A first order rate was fitted to the absorbance data to obtain a rate constant (first 10 to 15 s were eliminated due to mixing). The catalytic rate was calculated from the enzymatic rate minus the background rate. The enzymatic rate constant, determined in duplicate at each inhibitor concentration, was plotted against inhibitor concentration and a non-linear fit by SigmaPlot generated a Ki.

[2] = target: Peptidyl-prolyl cis-trans isomerase A (Homo sapiens, UniProt P62937); assay: as above
Peptidyl-prolyl cis-trans isomerase A, sequence (P62937 whole entry): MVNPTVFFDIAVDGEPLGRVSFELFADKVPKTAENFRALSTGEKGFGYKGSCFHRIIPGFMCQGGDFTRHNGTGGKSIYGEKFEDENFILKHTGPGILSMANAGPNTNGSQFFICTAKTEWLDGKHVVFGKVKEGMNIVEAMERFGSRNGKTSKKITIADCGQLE
Protocol: as §1

Peptidyl-prolyl cis-trans isomerase F, mitochondrial, sequence (P30405 whole entry): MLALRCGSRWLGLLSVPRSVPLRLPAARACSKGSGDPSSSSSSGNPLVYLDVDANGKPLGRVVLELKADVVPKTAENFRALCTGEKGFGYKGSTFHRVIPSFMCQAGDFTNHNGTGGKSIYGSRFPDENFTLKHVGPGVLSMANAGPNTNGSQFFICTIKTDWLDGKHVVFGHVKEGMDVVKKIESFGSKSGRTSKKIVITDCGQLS

Structure (SMILES)	Ki [1] [nM]	Ki [2] [nM]
C/C=C/C[C@@H](C)[C@@H](O)[C@H]1C(=O)N[C@@H](C(C)C)C(=O)N(C)[C@H](OCCN(C)C)C(=O)N(C)[C@@H](CC(C)C)C(=O)N[C@@H](C(C)C)C(=O)N(C)[C@@H](CC(C)C)C(=O)N[C@@H](C)C(=O)N[C@H](C)C(=O)N(C)[C@@H](CC(C)C)C(=O)N(C)[C@@H](CC(C)C)C(=O)N(C)[C@@H](C(C)C)C(=O)N1C [US12522634, Compound 3] (cyclo(A[dA][NMeL][NMeL][NMeV][MeBmt]V[X2][NMeL]V[NMeL]))	5.1	–
C/C=C/C[C@@H](C)[C@@H](O)[C@H]1C(=O)N[C@@H](C(C)C)C(=O)N(C)[C@H](OCCN2CCOCC2)C(=O)N(C)[C@@H](CC(C)C)C(=O)N[C@@H](C(C)C)C(=O)N(C)[C@@H](CC(C)C)C(=O)N[C@@H](C)C(=O)N[C@H](C)C(=O)N(C)[C@@H](CC(C)C)C(=O)N(C)[C@@H](CC(C)C)C(=O)N(C)[C@@H](C(C)C)C(=O)N1C [US12522634, Compound 4] (cyclo(A[dA][NMeL][NMeL][NMeV][MeBmt]V[X1][NMeL]V[NMeL]))	4.1	2.3
C/C=C/C[C@@H](C)[C@@H](O)[C@H]1C(=O)N[C@@H](CCC)C(=O)N(C)[C@H](OCCN(C)C)C(=O)N(C)[C@@H](CC(C)C)C(=O)N[C@@H](C(C)C)C(=O)N(C)[C@@H](CC(C)C)C(=O)N[C@@H](C)C(=O)N[C@H](C)C(=O)N(C)[C@@H](CC(C)C)C(=O)N(C)[C@@H](CC(C)C)C(=O)N(C)[C@@H](C(C)C)C(=O)N1C [US12522634, Compound 7] (cyclo(A[dA][NMeL][NMeL][NMeV][MeBmt][Nva][X2][NMeL]V[NMeL]))	5.9	9.4
C/C=C/C[C@@H](C)[C@@H](O)[C@H]1C(=O)N[C@@H](CCC)C(=O)N(C)[C@H](OCCN2CCOCC2)C(=O)N(C)[C@@H](CC(C)C)C(=O)N[C@@H](C(C)C)C(=O)N(C)[C@@H](CC(C)C)C(=O)N[C@@H](C)C(=O)N[C@H](C)C(=O)N(C)[C@@H](CC(C)C)C(=O)N(C)[C@@H](CC(C)C)C(=O)N(C)[C@@H](C(C)C)C(=O)N1C [US12522634, Compound 8] (cyclo(A[dA][NMeL][NMeL][NMeV][MeBmt][Nva][X1][NMeL]V[NMeL]))	35	39
